According to ChEMBL document CHEMBL4477233, “Discovery of novel TAOK2 inhibitor scaffolds from high-throughput screening” (Bioorg Med Chem Lett, 2016):

Key:
[1] = target: Cyclin-dependent kinase 1 (Homo sapiens) (UniProt P06493); assay: Inhibition of human CDK1; conditions: concentration not given here
[2] = target: T1, Serine/threonine-protein kinase TAO2 (Rattus norvegicus, UniProt Q9JLS3); assay: Inhibition of rat TAOK2 (1 to 320 residues) expressed in Baculovirus/insect cell expression system using MBP as substrate measured after 10 mins in presence of [32P]ATP by radiometric assay
T1 sequence (Q9JLS3 whole entry): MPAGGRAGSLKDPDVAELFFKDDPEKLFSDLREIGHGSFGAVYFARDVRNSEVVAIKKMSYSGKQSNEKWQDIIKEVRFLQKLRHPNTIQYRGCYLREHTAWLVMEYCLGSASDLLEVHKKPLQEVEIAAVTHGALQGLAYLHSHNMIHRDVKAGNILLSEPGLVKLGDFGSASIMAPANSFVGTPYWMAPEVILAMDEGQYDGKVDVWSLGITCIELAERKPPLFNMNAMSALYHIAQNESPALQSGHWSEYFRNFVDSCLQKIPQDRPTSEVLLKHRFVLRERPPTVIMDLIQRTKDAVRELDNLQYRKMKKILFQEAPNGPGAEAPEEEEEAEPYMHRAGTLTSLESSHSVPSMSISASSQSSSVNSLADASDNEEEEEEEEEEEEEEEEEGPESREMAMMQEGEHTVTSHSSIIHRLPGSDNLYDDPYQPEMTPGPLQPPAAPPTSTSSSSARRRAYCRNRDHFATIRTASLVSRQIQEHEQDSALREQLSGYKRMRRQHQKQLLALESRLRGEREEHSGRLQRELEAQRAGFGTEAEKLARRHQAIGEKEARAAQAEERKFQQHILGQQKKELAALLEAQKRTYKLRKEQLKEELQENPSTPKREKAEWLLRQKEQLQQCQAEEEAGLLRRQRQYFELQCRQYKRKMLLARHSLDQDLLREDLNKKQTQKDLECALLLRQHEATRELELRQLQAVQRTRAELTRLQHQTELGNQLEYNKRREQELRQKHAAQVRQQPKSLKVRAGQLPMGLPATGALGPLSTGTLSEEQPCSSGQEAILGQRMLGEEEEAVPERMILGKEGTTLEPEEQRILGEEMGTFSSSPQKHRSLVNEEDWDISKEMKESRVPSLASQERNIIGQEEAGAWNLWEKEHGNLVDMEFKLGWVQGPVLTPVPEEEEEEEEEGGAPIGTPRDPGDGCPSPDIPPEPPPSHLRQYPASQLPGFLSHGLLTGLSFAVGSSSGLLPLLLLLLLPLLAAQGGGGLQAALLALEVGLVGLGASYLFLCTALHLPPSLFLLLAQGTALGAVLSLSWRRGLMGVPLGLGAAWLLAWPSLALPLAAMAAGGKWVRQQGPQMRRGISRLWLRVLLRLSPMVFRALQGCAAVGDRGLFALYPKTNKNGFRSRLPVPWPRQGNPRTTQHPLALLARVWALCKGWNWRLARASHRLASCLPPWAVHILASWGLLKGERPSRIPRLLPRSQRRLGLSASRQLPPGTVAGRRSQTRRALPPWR

Sequence of Cyclin-dependent kinase 1 (Homo sapiens) (P06493 whole entry, looked up, the tested form may be a part): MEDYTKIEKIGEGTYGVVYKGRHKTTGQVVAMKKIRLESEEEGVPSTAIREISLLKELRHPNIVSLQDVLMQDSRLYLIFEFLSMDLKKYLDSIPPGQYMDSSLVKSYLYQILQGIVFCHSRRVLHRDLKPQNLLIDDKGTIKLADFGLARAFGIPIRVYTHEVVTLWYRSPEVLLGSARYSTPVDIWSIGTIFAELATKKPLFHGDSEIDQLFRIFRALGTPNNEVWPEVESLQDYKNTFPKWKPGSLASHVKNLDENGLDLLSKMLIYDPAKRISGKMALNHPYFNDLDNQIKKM

SMILES: CCC(=O)Nc1nc(C)c(-c2csc(Nc3cc(OC)ccc3OC)n2)s1
- inhibition [1]: > 50%
- IC50 [2]: 0.3 µM
